# Assays:
# Format in all cases: functional
# Rattus norvegicus [1] = experiment: Antihyperlipidemic activity in high fat diet fed Sprague-Dawley Rattus norvegicus (rat) assessed as coronary risk index at 50 mg/kg, po daily for 7 days measured on day 8 (reference value: 5.21 +/-1.76 no unit)
# Rattus norvegicus [2] = experiment: Antihyperlipidemic activity in high fat diet fed Sprague-Dawley Rattus norvegicus (rat) assessed as atherogenic index at 50 mg/kg, po daily for 7 days measured on day 8 (reference value: 4.15 +/-0.23 no unit)
# Rattus norvegicus [3] = experiment: Antihyperlipidemic activity in high fat diet fed Sprague-Dawley Rattus norvegicus (rat) assessed as decrease in serum VLDL level at 50 mg/kg, po daily for 7 days measured on day 8 relative to untreated control; set-up: scale not given: the % may be the effect or the level left
# Rattus norvegicus [4] = experiment: Antihyperlipidemic activity in high fat diet fed Sprague-Dawley Rattus norvegicus (rat) assessed as decrease in serum LDL level at 50 mg/kg, po daily for 7 days measured on day 8 relative to untreated control; set-up: scale not given: the % may be the effect or the level left
# Rattus norvegicus [5] = experiment: Antihyperlipidemic activity in high fat diet fed Sprague-Dawley Rattus norvegicus (rat) assessed as decrease in serum triglyceride level at 50 mg/kg, po daily for 7 days measured on day 8 relative to untreated control; set-up: scale not given: the % may be the effect or the level left
# Rattus norvegicus [6] = experiment: Antihyperlipidemic activity in high fat diet fed Sprague-Dawley Rattus norvegicus (rat) assessed as decrease in serum total cholesterol level at 50 mg/kg, po daily for 7 days measured on day 8 relative to untreated control; set-up: scale not given: the % may be the effect or the level left
# Rattus norvegicus [7] = experiment: Antihyperlipidemic activity in high fat diet fed Sprague-Dawley Rattus norvegicus (rat) assessed as increase in serum HDL level at 50 mg/kg, po daily for 7 days measured on day 8 relative to untreated control
# Rattus norvegicus [8] = experiment: Antihyperlipidemic activity in high fat diet fed Sprague-Dawley Rattus norvegicus (rat) assessed as increase in serum HDL level at 1 mg/kg, po daily for 7 days measured on day 8 relative to untreated control
# Rattus norvegicus [9] = experiment: Antihyperlipidemic activity in high fat diet fed Sprague-Dawley Rattus norvegicus (rat) assessed as atherogenic index at 1 mg/kg, po daily for 7 days measured on day 8 (reference value: 4.15 +/-0.23 no unit)
# Rattus norvegicus [10] = experiment: Antihyperlipidemic activity in high fat diet fed Sprague-Dawley Rattus norvegicus (rat) assessed as decrease in serum VLDL level at 1 mg/kg, po daily for 7 days measured on day 8 relative to untreated control; set-up: scale not given: the % may be the effect or the level left
# Rattus norvegicus [11] = experiment: Antihyperlipidemic activity in high fat diet fed Sprague-Dawley Rattus norvegicus (rat) assessed as decrease in serum triglyceride level at 1 mg/kg, po daily for 7 days measured on day 8 relative to untreated control; set-up: scale not given: the % may be the effect or the level left
# Rattus norvegicus [12] = experiment: Antihyperlipidemic activity in high fat diet fed Sprague-Dawley Rattus norvegicus (rat) assessed as decrease in serum total cholesterol level at 1 mg/kg, po daily for 7 days measured on day 8 relative to untreated control; set-up: scale not given: the % may be the effect or the level left
# Rattus norvegicus [13] = experiment: Antihyperlipidemic activity in high fat diet fed Sprague-Dawley Rattus norvegicus (rat) assessed as decrease in serum LDL level at 1 mg/kg, po daily for 7 days measured on day 8 relative to untreated control; set-up: scale not given: the % may be the effect or the level left
# Rattus norvegicus [14] = experiment: Antihyperlipidemic activity in high fat diet fed Sprague-Dawley Rattus norvegicus (rat) assessed as coronary risk index at 1 mg/kg, po daily for 7 days measured on day 8 (reference value: 5.21 +/-1.76 no unit)
Compound,Activity (Rattus norvegicus [1]),AI (Rattus norvegicus [2]),Activity (Rattus norvegicus [3]),Activity (Rattus norvegicus [4]),Activity (Rattus norvegicus [5]),Activity (Rattus norvegicus [6]),Activity (Rattus norvegicus [7]),Activity (Rattus norvegicus [8]),AI (Rattus norvegicus [9]),Activity (Rattus norvegicus [10]),Activity (Rattus norvegicus [11]),Activity (Rattus norvegicus [12]),Activity (Rattus norvegicus [13]),Activity (Rattus norvegicus [14])
O=c1[nH]c(CF)nc2scc(-c3ccc(Cl)cc3)c12,2.05,0.63,51.91%,72.47%,51.91%,44.99%,79.63%,,,,,,,
CCOC(=O)C1=C(C)C2C(=O)N=C(CF)N=C2S1 (stereo not drawn),1.69,0.31,57.76%,86.92%,57.77%,56.19%,73.48%,,,,,,,
O=c1[nH]c(CF)nc2scc(-c3ccccc3)c12,2.63,1.13,49.37%,56.47%,49.36%,37.45%,46.43%,,,,,,,
O=C1[C@H](CC[C@H](O)c2ccc(F)cc2)[C@@H](c2ccc(O)cc2)N1c1ccc(F)cc1 [EZETIMIBE],,,,,,,,74.96%,0.58,52.22%,52.23%,47.57%,75.41%,2.01
O=c1[nH]c(CF)nc2ccccc12,2.75,1.2,46.8%,57.31%,46.19%,38.24%,52.4%,,,,,,,
O=c1[nH]c(CF)nc2sc3c(c12)CCCC3,2.39,0.96,50.71%,65.82%,50.71%,40.44%,58.27%,,,,,,,
Cc1sc2nc(CF)[nH]c(=O)c2c1C,3.14,1.46,37.83%,45.91%,37.8%,32.48%,44.68%,,,,,,,
COc1cc2nc(CF)[nH]c(=O)c2cc1OC,3.16,1.53,45.85%,40.26%,45.14%,26.27%,62.44%,,,,,,,
Cc1sc2nc(CF)[nH]c(=O)c2c1-c1ccccc1,3.18,1.51,39.77%,48.7%,39.74%,33.18%,41.31%,,,,,,,
